Reference: patent US20240025919A1, “AZA-TETRACYCLIC OXAZEPINE COMPOUNDS AND USES THEREOF” (Genentech, Inc., priority 2022, published 2024)

Legend:
KRAS WT = KRAS WT (Homo sapiens (Human), UniProt P01116); assay: KRAS WT Biochemical Assay, BODIPY-GDP Exchange TR-FRET (Example 502; 0.06 nM KRAS WT, 15 nM GDP, 300 nM SOS1, 120-minute incubation); conditions: read-out: KRas HTRF IC50
Summary of the method: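 Biotin-tagged recombinant KRAS WT (0.06 nM) preloaded with 15 nM GDP and Tb-streptavidin, 10 min RT, then exchange started with 300 nM SOS1 plus 300 nM BODIPY-GDP in HEPES pH 7.5 buffer with MgCl2. TR-FRET 520/490 ratio read after 120 min; normalized to DMSO and full-inhibition control; IC50 from 4-parameter fit.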

KRAS G12D = KRAS G12D (Homo sapiens (Human), UniProt P01116, G12D); assay: KRAS G12D LoEnz Biochemical Assay, BODIPY-GDP Exchange TR-FRET (SOS1-mediated nucleotide exchange); conditions: read-out: KRas (G12D) GDP HTRF IC50
KRAS G12D, sequence (P01116-2 other isoform, or with tags, fused parts or gaps G12D): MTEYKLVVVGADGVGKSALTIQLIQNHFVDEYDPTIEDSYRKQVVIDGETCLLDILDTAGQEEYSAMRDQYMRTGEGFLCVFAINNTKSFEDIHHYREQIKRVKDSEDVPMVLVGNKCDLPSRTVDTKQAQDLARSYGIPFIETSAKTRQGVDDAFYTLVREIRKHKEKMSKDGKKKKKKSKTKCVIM

KRAS WT, sequence (P01116-2 other isoform, or with tags, fused parts or gaps): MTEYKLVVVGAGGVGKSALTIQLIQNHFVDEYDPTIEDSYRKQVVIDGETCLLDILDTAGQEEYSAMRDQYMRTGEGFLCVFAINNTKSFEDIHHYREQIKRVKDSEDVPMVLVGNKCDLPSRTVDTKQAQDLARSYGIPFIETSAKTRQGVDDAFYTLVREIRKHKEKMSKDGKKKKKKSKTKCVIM

Row | Compound | IC50 (KRAS WT) | IC50 (KRAS G12D)
1 | Cc1c(F)c(N)cc(-c2nc3c4c(nc(OCCC5(N6CCOCC6)COC5)nc4c2F)N2C[C@H]4CC[C@H](N4)[C@H]2[C@H](C)O3)c1C(F)(F)F [Compound 149, 2-Fluoro-5-((5S,5aS,6S,9R)-1-fluoro-5-methyl-12-(2-(3-morpholinooxetan-3-yl)ethoxy)-5a,6,7,8,9,10-hexahydro-5H-4-oxa-3,10a,11,13,14-pentaaza-6,9-methanonaphtho[1,8-ab]heptalen-2-yl)-3-methyl-4-(trifluoromethyl)aniline] | 5450 nM | 18.4 nM
2 | C#Cc1c(F)ccc2cc(N)cc(-c3nc4c5c(nc(OC[C@]67CCN6CC(F)(F)C7)nc5c3F)N3C[C@H]5CC[C@H](N5)[C@H]3[C@H](C)O4)c12 [Compound 110, 4-((5S,5aS,6S,9R)-12-(((R)-3,3-Difluoro-1-azabicyclo[3.2.0]heptan-5-yl)methoxy)-1-fluoro-5-methyl-5a,6,7,8,9,10-hexahydro-5H-4-oxa-3,10a,11,13,14-pentaaza-6,9-methanonaphtho[1,8-ab]heptalen-2-yl)-5-ethynyl-6-fluoronaphthalen-2-amine] | 7.75 nM | 0.15 nM
3 | Cc1c(F)c(N)cc(-c2nc3c4c(nc(OCCCN5C[C@@H]6C[C@H]5CO6)nc4c2F)N2C[C@H]4CC[C@H](N4)[C@H]2[C@H](C)O3)c1C(F)(F)F [Compound 164, 5-((5S,5aS,6S,9R)-12-(3-((1S,4S)-2-oxa-5-azabicyclo[2.2.1]heptan-5-yl)propoxy)-1-fluoro-5-methyl-5a,6,7,8,9,10-hexahydro-5H-4-oxa-3,10a,11,13,14-pentaaza-6,9-methanonaphtho[1,8-ab]heptalen-2-yl)-2-fluoro-3-methyl-4-(trifluoromethyl)aniline] | 30.6 nM | 0.15 nM
4 | C[C@@H]1Oc2nc(-c3cc(N)c(F)cc3C(C)(F)F)c(F)c3nc(OC[C@@]45CCCN4C[C@H](F)C5)nc(c23)N2C[C@H]3CC[C@H](N3)[C@@H]12 [Compound 73, 4-(1,1-difluoroethyl)-2-fluoro-5-((5S,5aS,6S,9R)-1-fluoro-12-(((2R,7aS)-2-fluorotetrahydro-1H-pyrrolizin-7a(5H)-yl)methoxy)-5-methyl-5a,6,7,8,9,10-hexahydro-5H-4-oxa-3,10a,11,13,14-pentaaza-6,9-methanonaphtho[1,8-ab]heptalen-2-yl)aniline] | 36.3 nM | 2.6 nM
5 | Cc1cc(N)cc(-c2nc3c4c(nc(OC[C@@]56CCCN5CC5(CC5(F)F)C6)nc4c2F)N2C[C@H]4CC[C@H](N4)[C@H]2[C@H](C)O3)c1C(F)(F)F (stereo partly drawn) [Compound 68, 3-((5S,5aS,6S,9R)-12-(((7a′S)-2,2-Difluorodihydro-1′H,3′H-spiro[cyclopropane-1,2′-pyrrolizin]-7a′(5′H)-yl)methoxy)-1-fluoro-5-methyl-5a,6,7,8,9,10-hexahydro-5H-4-oxa-3,10a,11,13,14-pentaaza[6,9]methanonaphtho[1,8-ab]heptalen-2-yl)-5-methyl-4-(trifluoromethyl)aniline] | 0.112 nM | 0.07 nM
6 | C[C@@H]1Oc2nc(-c3cccc4ccc(N)nc34)c(F)c3nc(OC[C@@]45CCCN4C[C@H](F)C5)nc(c23)N2C[C@H]3CC[C@H](N3)[C@@H]12 [Compound 114, 8-((5S,5aS,6S,9R)-1-Fluoro-12-(((2R,7aS)-2-fluorotetrahydro-1H-pyrrolizin-7a(5H)-yl)methoxy)-5-methyl-5a,6,7,8,9,10-hexahydro-5H-4-oxa-3,10a,11,13,14-pentaaza-6,9-methanonaphtho[1,8-ab]heptalen-2-yl)quinolin-2-amine] | 36700 nM | 135 nM
7 | C[C@@H]1Oc2nc(-c3cc(N)c(F)c(F)c3C(F)(F)F)c(F)c3nc(OCC45CCN4CC(F)(F)C5)nc(c23)N2C[C@H]3CC[C@H](N3)[C@@H]12 (stereo partly drawn) [Compound 155, 5-((5S,5aS,6S,9R)-12-((3,3-difluoro-1-azabicyclo[3.2.0]heptan-5-yl)methoxy)-1-fluoro-5-methyl-5a,6,7,8,9,10-hexahydro-5H-4-oxa-3,10a,11,13,14-pentaaza-6,9-methanonaphtho[1,8-ab]heptalen-2-yl)-2,3-difluoro-4-(trifluoromethyl)aniline] | 31.5 nM | 0.22 nM
8 | Cc1c(F)c(N)cc(-c2nc3c4c(nc(OCC5(CN6CCO[C@H](CF)C6)CC5)nc4c2F)N2C[C@H]4CC[C@H](N4)[C@H]2[C@H](C)O3)c1C(F)(F)F [Compound 171, 2-Fluoro-5-((5S,5aS,6S,9R)-1-fluoro-12-((1-(((S)-2-(fluoromethyl)morpholino)methyl)cyclopropyl)methoxy)-5-methyl-5a,6,7,8,9,10-hexahydro-5H-4-oxa-3,10a,11,13,14-pentaaza-6,9-methanonaphtho[1,8-ab]heptalen-2-yl)-3-methyl-4-(trifluoromethyl)aniline] | 13.7 nM | 0.253 nM
9 | C[C@@H]1Oc2nc(-c3[nH]c(=O)cc4ccccc34)c(F)c3nc(OC[C@@]45CCCN4C[C@H](F)C5)nc(c23)N2C[C@H]3CC[C@H](N3)[C@@H]12 [Compound 105, 1-((5S,5aS,6S,9R)-1-Fluoro-12-(((2R,7aS)-2-fluorotetrahydro-1H-pyrrolizin-7a(5H)-yl)methoxy)-5-methyl-5a,6,7,8,9,10-hexahydro-5H-4-oxa-3,10a,11,13,14-pentaaza-6,9-methanonaphtho[1,8-ab]heptalen-2-yl)isoquinolin-3(2H)-one] | 9700 nM | 141 nM
10 | Cc1c(F)c(N)cc(-c2nc3c4c(nc(OC[C@@]56CCCN5C[C@H](F)C6)nc4c2F)N2C[C@H]4CC[C@H](N4)[C@H]2[C@H](C)O3)c1Cl [Compound 76, 4-Chloro-2-fluoro-5-((5S,5aS,6S,9R)-1-fluoro-12-(((2R,7aS)-2-fluorotetrahydro-1H-pyrrolizin-7a(5H)-yl)methoxy)-5-methyl-5a,6,7,8,9,10-hexahydro-5H-4-oxa-3,10a,11,13,14-pentaaza-6,9-methanonaphtho[1,8-ab]heptalen-2-yl)-3-methylaniline] | 14.3 nM | 0.13 nM
11 | Cc1c(F)c(N)cc(-c2nc3c4c(nc(OC[C@@]5(CCF)CCCN5C)nc4c2F)N2C[C@H]4CC[C@H](N4)[C@H]2[C@H](C)O3)c1C(F)(F)F (single isomer, unassigned) [127 (isomer 1)] | 17.9 nM | 0.14 nM
12 | Cc1c(F)c(N)cc(-c2nc3c4c(nc(OC[C@@H]5CC(F)(F)CN5C)nc4c2F)N2C[C@H]4CC[C@H](N4)[C@H]2[C@H](C)O3)c1C(F)(F)F [Compound 65, 5-((5S,5aS,6S,9R)-12-(((S)-4,4-Difluoro-1-methylpyrrolidin-2-yl)methoxy)-1-fluoro-5-methyl-5a,6,7,8,9,10-hexahydro-5H-4-oxa-3,10a,11,13,14-pentaaza-6,9-methanonaphtho[1,8-ab]heptalen-2-yl)-2-fluoro-3-methyl-4-(trifluoromethyl)aniline] | 377 nM | 1.72 nM
13 | Cc1cc(N)cc(-c2nc3c4c(nc(OC[C@@H]5CC[C@H]6COCCN65)nc4c2F)N2C[C@H]4CC[C@H](N4)[C@H]2[C@H](C)O3)c1C(F)(F)F [Compound 67, 3-((5S,5aS,6S,9R)-1-Fuoro-1-(((6S,8aS)-hexahydro-1H-pyrrolo[2,1-c][1,4]oxazin-6-yl)methoxy)-5-methyl-5a,6,7,8,9,10-hexahydro-5H-4-oxa-3,10a,11,13,14-pentaaza-6,9-methanonaphtho[1,8-ab]heptalen-2-yl)-5-methyl-4-(trifluoromethyl)aniline] | 7.53 nM | 0.17 nM
14 | Cc1c(F)c(N)cc(-c2nc3c4c(nc(OC[C@]5(CC(F)F)CCCN5C)nc4c2F)N2C[C@H]4CC[C@H](N4)[C@H]2[C@H](C)O3)c1C(F)(F)F (single isomer, unassigned) [150 (isomer 2)] | 64.5 nM | 0.25 nM
15 | Cc1cc(N)c(F)c(-c2nc3c4c(nc(OC[C@@]56CCCN5C[C@H](F)C6)nc4c2F)N2C[C@H]4CC[C@H](N4)[C@H]2[C@H](C)O3)c1I [Compound 108, 2-Fluoro-3-((5S,5aS,6S,9R)-1-fluoro-12-(((2R,7aS)-2-fluorotetrahydro-1H-pyrrolizin-7a(5H)-yl)methoxy)-5-methyl-5a,6,7,8,9,10-hexahydro-5H-4-oxa-3,10a,11,13,14-pentaaza-6,9-methanonaphtho[1,8-ab]heptalen-2-yl)-4-iodo-5-methylaniline] | 37.6 nM | 0.325 nM
16 | Cc1c(F)c(N)cc(-c2nc3c4c(nc(OC[C@@]56C[C@H](F)CN5C[C@H](F)C6)nc4c2F)N2C[C@H]4CC[C@H](N4)[C@H]2[C@H](C)O3)c1C(F)(F)F [Compound 142, 5-((5S,5aS,6S,9R)-12-(((2R,6S,7as)-2,6-Difluorotetrahydro-1H-pyrrolizin-7a(5H)-yl)methoxy)-1-fluoro-5-methyl-5a,6,7,8,9,10-hexahydro-5H-4-oxa-3,10a,11,13,14-pentaaza-6,9-methanonaphtho[1,8-ab]heptalen-2-yl)-2-fluoro-3-methyl-4-(trifluoromethyl)aniline] | 33.2 nM | 0.2 nM
17 | Cc1c(F)c(N)cc(-c2nc3c4c(nc(OC[C@@H]5[C@@H]6CCN5CCO6)nc4c2F)N2C[C@H]4CC[C@H](N4)[C@H]2[C@H](C)O3)c1C(F)(F)F [Compound 136, 5-((5S,5aS,6S,9R)-12-(((5S,8R)-4-Oxa-1-azabicyclo[3.2.1]octan-8-yl)methoxy)-1-fluoro-5-methyl-5a,6,7,8,9,10-hexahydro-5H-4-oxa-3,10a,11,13,14-pentaaza-6,9-methanonaphtho[1,8-ab]heptalen-2-yl)-2-fluoro-3-methyl-4-(trifluoromethyl)aniline] | 90.8 nM | 0.38 nM
